# According to patent US10869834B2, “Treatment of inflammatory bowel disease” (University College Dublin, National University of Ireland, …, priority 2016, dated 2020):
# How the values were obtained:
# [1] = tested on: mucus secretion; settings: Birchenough G. et al., Science 352:1535-1542; cited from earlier work
# [2] = tested on: C. rodentium; assay: C. rodentium infection of mice treated with L. johnsonii by oral gavage; format: in vivo, C57Bl/6 mice; settings: daily oral gavage with NCC533 or NCC9359 prior and during infection; 6 dpi
# Procedure: Cyba^flox/flox mice were bred to B6.SJL-Tg (Vil-cre) 997Gum/J mice (Jackson Laboratories) to generate mice with a targeted deletion of p22^phox in the epithelium of the small intestine and colon (p22ΔIEC). Mice were infected by oral gavage with 0.3 ml of an overnight culture of Luria Bertani broth containing 5×10^9 Citrobacter rodentium and analyzed at day 6 post infection. L. johnsonii NCC533/NCC9359 pretreatment and treatment: L. johnsonii NCC533 and NCC9359 strains were administered at a concentration of 10^9 CFU to WT mice via oral gavage starting 3 days prior C. rodentium inoculation and daily during C. rodentium infection. For histopathology Carnoy-fixed distal colons were embedded in paraffin and 5 μm sections were stained with hematoxylin and eosin (H&E).
# [3] = tested on: murine colitis (3% DSS); assay: In-vivo murine colitis model (3% DSS), administration of H2O2-producing bacteria; parameters: species or system mice
# Procedure: Wildtype mice were treated with 1×10^9 bacteria by daily oral gavage 5 days before, during colitis (3% DSS in water) and until the end of the experiment (day 16). On day 7 of DSS treatment, DSS was replaced with water to enable the healing process. […] One-way Anova with Tukey post-hoc test; **p=0.01, ***p=0.001.
# [4] = tested on: L. monocytogenes; settings: Cos-NOX4 cell-produced H2O2 vs Cos-p22
# Procedure: Exposure of bacteria to H2O2 released by Cos cells stable expressing the NOX4-p22^phox complex or as negative control Cos cells expressing only p22^phox was performed using Boyden chambers. Cells in DMEM, 10% FBS medium were seeded into the bottom chamber 24 h before start of the experiment and then moved to microaerophilic conditions for 3 h. Bacteria grown in microaerophilic conditions were resuspended in 5% O2 conditioned DMEM, 3-10% FBS medium, placed on top of the filter (3 μm pore size) and incubated for 3 h. Bacteria were harvested from the filter for analysis.
# [5] = tested on: bacterial phosphotyrosine signalling; settings: H2O2 generated by colon cells, human biopsies and rabbit loop model during pathogen exposure; co-culture 3 h
# Procedure: Bacteria in RPMI 1640 containing 3% FBS (OD600=0.4; 10^7 bacteria, 1 ml) were incubated with HCT-8 cells at 37° C. in microaerophilic conditions with MOI 50. DPI pretreatment of HCT-8 cells was for 20 min (25 μM). Non-adherent bacteria were removed by centrifugation of media (3300 g, 5 min), and were used for immunoblotting. […] Exposure of bacteria to H2O2 released by Cos cells stable expressing the NOX4-p22^phox complex or as negative control Cos cells expressing only p22^phox was performed using Boyden chambers. Cells in DMEM, 10% FBS medium were seeded into the bottom chamber 24 h before start of the experiment and then moved to microaerophilic conditions for 3 h. Bacteria grown in microaerophilic conditions were resuspended in 5% O2 conditioned DMEM, 3-10% FBS medium, placed on top of the filter (3 μm pore size) and incubated for 3 h. Bacteria were harvested from the filter for analysis.
# Polarized In Vitro Organ Culture (pIVOC): pIVOC experiments of colon biopsies were performed as described (Cell Host Microbe 12:47-59, 2012). Bacterial infections were conducted using microaerophilic preconditioned media or buffers. L. monocytogenes was added at a final OD600=0.2 to the apical side of biopsies and H2O2 release was measured. Controls were either non-infected biopsies or biopsies pretreated with 20 μM DPI for 20 min before addition of C. jejuni or L. monocytogenes to the top chamber. […]
# [6] = tested on: EPEC; settings: H2O2 released from Cos-NOX4 cells (not Cos-p22) for 3 h; separated by a filter
# Procedure: (§1) Cos-NOX4 and Cos-p22 cells in DMEM, 5% FBS (Cell Signal 18:69-82, 2006; J Biol Chem 283:35273-82, 2008; Mol Cell Biol 30:961-75, 2010) were seeded into the lower chamber of a Boyden chamber (pore width 0.4 μm) 48 h before the assay. Lactobacilli grown in DMEM were suspended in media onto the upper chamber. Co-culture was initiated for 3-4 h in DMEM, 5% FBS media followed by harvesting of bacteria on the filter for RNA isolation.
# [7] = tested on: C. rodentium; settings: H2O2 generated by Cos-NOX4 cells vs Cos-p22 negative control; 4 h, DMEM; separated by a filter; n=4
# Procedure: as §1
# [8] = tested on: bacterial phosphotyrosine content; settings: 0.7 mM H2O2, 3 h; when iron is present; 5% O2
# Procedure: C. jejuni 81-176, L. monocytogenes EGDe and K. pneumoniae were grown microaerophilic to mid-log phase in minimal essential media. Bacteria were collected by centrifugation (5000 rpm, 10 min) and diluted to OD600=0.2 in MEM. Iron (II) sulfate (40 μM) was added as indicated and cultures were grown microaerophilic until OD600=0.5 was reached. To C. jejuni 81-176 cultures 5 mM H2O2 was added and the growth continued microaerophilic for 8 h. L. monocytogenes and K. pneumoniae cultures were exposed to 0.7 mM H2O2 for 3 h in microaerophilic conditions. Bacteria were then diluted to OD600=0.2, collected by centrifugation, washed twice with 25 mM Tris-HCl, resuspended in 30 μl Laemmli buffer and heated for 5 min at 95° C. Boiled samples were loaded on 10% SDS-PAGE gels, separated by electrophoresis and immunoblotted. The control samples followed an identical protocol without supplemental iron or added H2O2.
# [9] = tested on: S. pneumoniae; settings: 0.7 mM H2O2 for 3 h
# Procedure: (§2) Invasion and adhesion assays were performed as previously reported (Cell Host Microbe 12:47-59, 2012). Bacterial cell viability was assessed using the XTT (2,3-Bis-(2-Methoxy-4-Nitro-5-Sulfophenyl)-2H-Tetrazolium-5-Carboxanilide) assay. For in vitro experiments bacteria were exposed at time zero once to 0.7 mM H2O2, except for C. jejuni (5 mM), and analyzed after indicated time periods (up to 3 h, except C. jejuni up to 6 h).
# [10] = tested on: C. rodentium; settings: single bolus of 1 mM H2O2 in DMEM, analysed 3 h later
# Procedure: as §2
# [11] = tested on: L. monocytogenes
# Procedure: as §2
# [12] = tested on: S. pneumoniae; settings: bacteria pretreated with 0.7 mM H2O2 for 3 h
# Procedure: Biofilm was analyzed using SYTO9. Cultured bacteria were grown in microaerophilic conditions overnight. The bacterial culture was then adjusted to OD600=0.1 and 1 ml of this solution was added to an optical grade plastic bottom μ-plate 24 well. Bacteria were incubated for an additional 72 h in microaerophilic conditions. Bacteria were washed gently with autoclaved water to remove planktonic cells and fixed with 3% paraformaldehyde in PBS for 1 h. Images were then analyzed for total intensity of SYTO9 fluorescence over the imaged volumes using Fiji. Briefly, after staining with SYTO9, 50 independent 13.2 μm stacks of 60 images at a 0.22 μm Z resolution were imaged for all conditions. The mean fluorescence of the different slices in the stacks was measured and a standard deviation was computed from the aggregated data per slice.
# [13] = daily oral gavage 5 days before, during colitis and until day 16
# [14] = bacteria pretreated with 0.7 mM H2O2 for 3 h
smiles,measurement,setting,value
"OO [H2O2, hydrogen peroxide]",mucus secretion,[1],can restore mucus secretion
same,host epithelial tissue damage (H&E staining of colon sections),[2],required to prevent host epithelial tissue damage
same,"recovery after insult (disease index, body weight)","[3]; daily administration, low nanomolar H2O2 (via NCC533, 1x10^9 bacteria oral gavage), DSS replaced with water on day 7",accelerates recovery after insult
same,inflammation (colon length as indicator),[3]; [13],downregulates inflammation
same,tissue restitution (H&E staining of colon day 11),[3]; [13],supports rapid tissue restitution
same,bacterial phosphotyrosine content (anti-phosphotyrosine immunoblot),[4],marked decrease in bacterial phosphotyrosine content
same,bacterial phosphotyrosine signalling (anti-phosphotyrosine immunoblots),[5],downregulates bacterial phosphotyrosine signalling
same,ler and escN expression in EPEC (qPCR),[6],Downregulation of LEE island genes
same,ler and escN expression in C. rodentium (qPCR),[7],Downregulation of LEE island genes
same,bacterial phosphotyrosine content (anti-phosphotyrosine immunoblots),[8],decreases bacterial phosphotyrosine content
same,bacterial viability after treatment,[9],remained fully viable
same,ler expression in C. rodentium (qPCR),[10],Downregulation of ler
same,bacterial viability after treatment,[11]; 0.7 mM H2O2 for 3 h,remained fully viable
same,adherence to HCT-8 colon cells,[11]; [14],reduced
same,invasion of HCT-8 colon cells,[11]; [14],reduced
same,biofilm formation (mean SYTO9 fluorescence),[12],Reduced biofilm formation
